Assays:
CDK4/Cyclin D1 = target: T1, CDK4/Cyclin D1 (Homo sapiens, UniProt P11802); experiment: CDK4/CyclinD1 enzymatic activity assay (TR-FRET); assay type: biochemical; conditions: ATP 2 mM final, read-out: CDK4_D1 IC50
T1 construct: purchased ProQinase; host or cells: insect cell
Method in brief: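 Insect-cell-expressed CDK4/Cyclin D1 (1 nM) phosphorylated ULight-4E-BP1 peptide (100 nM) at 2 mM ATP in HEPES pH 7.4 buffer after 20 min compound preincubation. Reaction started with 10 mM MgCl2, ran 45 min at 37 °C, then EDTA quench and Eu-anti-phospho-4E-BP1 TR-FRET detection. IC50 from 9-point 3-fold dilutions, 4-parameter fit.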

CDK2/Cyclin E2 = CDK2/Cyclin E2 (Homo sapiens, UniProt P24941); experiment: CDK2/CyclinE2 enzymatic activity assay (TR-FRET); assay type: biochemical; conditions: ATP 1 mM final, read-out: CDK2_E1 IC50
Method in brief: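 Insect-cell-expressed CDK2/Cyclin E2 (1 nM), ULight-4E-BP1 (50 nM) and ATP (1 mM) in HEPES pH 7.4 buffer were preincubated 20 min at RT with compound (9-dose, 3-fold), started with 10 mM MgCl2 and run 45 min at 37 °C. EDTA/Eu-anti-P-4E-BP1 stop, 60 min TR-FRET detection; IC50 from 4-parameter Hill fit.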

OVCAR3 p-RB = experiment: pRB ICW assay in OVCAR3 cells; assay type: cell-based; conditions: Homo sapiens, OVCAR-3, incubated with compound for 2 hours
Method in brief: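 OVCAR3 cells were treated 2 h at 37 °C with a 9-point half-log compound series, in duplicate, with 10 μM reference compound as maximum inhibition. Cells were then fixed, permeabilized and stained with anti-phospho-RB plus DRAQ5. In-cell western intensities were read at 700/800 nm on Odyssey CLx.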

T1 sequence (P11802 whole entry): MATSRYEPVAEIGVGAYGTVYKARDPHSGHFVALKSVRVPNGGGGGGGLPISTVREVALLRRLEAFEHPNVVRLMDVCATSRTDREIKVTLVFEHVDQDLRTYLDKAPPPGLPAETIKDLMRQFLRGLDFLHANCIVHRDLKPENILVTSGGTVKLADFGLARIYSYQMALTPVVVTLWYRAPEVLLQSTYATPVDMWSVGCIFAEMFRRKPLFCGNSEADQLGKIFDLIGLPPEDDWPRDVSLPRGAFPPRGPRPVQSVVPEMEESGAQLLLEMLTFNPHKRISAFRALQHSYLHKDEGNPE
T1 sequence (P24385 whole entry partner): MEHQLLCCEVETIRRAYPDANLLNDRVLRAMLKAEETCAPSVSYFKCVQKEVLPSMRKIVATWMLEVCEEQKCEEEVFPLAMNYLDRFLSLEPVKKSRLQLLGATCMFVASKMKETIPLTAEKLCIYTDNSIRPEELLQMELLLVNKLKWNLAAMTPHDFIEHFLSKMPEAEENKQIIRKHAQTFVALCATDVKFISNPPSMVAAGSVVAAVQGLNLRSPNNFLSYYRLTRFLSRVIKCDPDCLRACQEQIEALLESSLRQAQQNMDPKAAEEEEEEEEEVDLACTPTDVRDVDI

Row | Structure (SMILES) | IC50 (CDK4/Cyclin D1) | IC50 (CDK2/Cyclin E2) | IC50 (OVCAR3 p-RB)
1 | CS(=O)(=O)N1CCC(Nc2ncc(C(F)(F)F)c(-c3cnc(OC4CCCC4)s3)n2)CC1 [Example 27, 4-(2-(cyclopentyloxy)thiazol-5-yl)-N-(1-(methylsulfonyl)piperidin-4-yl)-5-(trifluoromethyl)pyrimidin-2-amine] | ≤ 100 nM | ≤ 100 nM | > 1000 nM
2 | Cc1ncc(-c2nc(NC3CCN(S(=O)(=O)c4cn(C)cn4)CC3)ncc2C(F)(F)F)s1 [Example 58, N-[1-(1-Methylimidazol-4-yl)sulfonylpiperidin-4-yl]-4-(2-methyl-1,3-thiazol-5-yl)-5-(trifluoromethyl)pyrimidin-2-amine] | ≤ 100 nM | ≤ 100 nM | 100 to 1000 nM
3 | CS(=O)(=O)N1CCC(Nc2ncc(C(F)(F)F)c(-c3cnc(N4CCCC4)s3)n2)CC1 [Example 1, N-(1-Methylsulfonylpiperidin-4-yl)-4-(2-pyrrolidin-1-yl-1,3-thiazol-5-yl)-5-(trifluoromethyl)pyrimidin-2-amine] | ≤ 100 nM | ≤ 100 nM | 100 to 1000 nM
4 | CC(=O)Nc1ncc(-c2nc(NC3CCN(S(C)(=O)=O)CC3)ncc2C(F)(F)F)s1 [Example 21, N-(5-(2-((1-(methylsulfonyl)piperidin-4-yl)amino)-5-(trifluoromethyl)pyrimidin-4-yl)thiazol-2-yl)acetamide] | 100 to 1000 nM | ≤ 100 nM | 100 to 1000 nM
5 | CS(=O)(=O)N1CCC(Nc2ncc(C(F)(F)F)c(-c3cnc(NCCO)s3)n2)CC1 [Example 31, 2-[[5-[2-[(1-methylsulfonylpiperidin-4-yl)amino]-5-(trifluoromethyl)pyrimidin-4-yl]-1,3-thiazol-2-yl]amino]ethanol] | ≤ 100 nM | ≤ 100 nM | 100 to 1000 nM
6 | CS(=O)(=O)N1CCC(Nc2ncc(C(F)(F)F)c(-c3cnc(C4=CCCC4)s3)n2)CC1 [Example 4, 4-[2-(Cyclopenten-1-yl)-1,3-thiazol-5-yl]-N-(1-methylsulfonylpiperidin-4-yl)-5-(trifluoromethyl)pyrimidin-2-amine] | ≤ 100 nM | ≤ 100 nM | > 1000 nM
7 | CS(=O)(=O)N1CCC(Nc2ncc(C(F)(F)F)c(-c3cnc(C4=CCOCC4)s3)n2)CC1 [Example 2, 4-[2-(3,6-Dihydro-2H-pyran-4-yl)-1,3-thiazol-5-yl]-N-(1-methyl-sulfonylpiperidin-4-yl)-5-(trifluoromethyl)pyrimidin-2-amine] | ≤ 100 nM | 100 to 1000 nM | 100 to 1000 nM
8 | Cc1cc(CO)ccc1-c1nc(C)c(-c2nc(NC3CCN(S(C)(=O)=O)CC3)ncc2F)s1 [Example 15, [4-[5-[5-fluoro-2-[(1-methylsulfonylpiperidin-4-yl)amino]pyrimidin-4-yl]-4-methyl-1,3-thiazol-2-yl]-3-methylphenyl]methanol] | 100 to 1000 nM | ≤ 100 nM | > 1000 nM
9 | Cc1ccc(-c2ncc(-c3nc(NC4CCN(S(C)(=O)=O)CC4)ncc3C(F)(F)F)s2)c(C)c1 [Example 11, 4-[2-(2,4-dimethylphenyl)-1,3-thiazol-5-yl]-N-(1-methylsulfonyl-piperidin-4-yl)-5-(trifluoromethyl)pyrimidin-2-amine] | 100 to 1000 nM | ≤ 100 nM | > 1000 nM
10 | CCS(=O)(=O)N1CCC(Nc2ncc(C(F)(F)F)c(-c3cnc(C)s3)n2)CC1 [Example 45, N-(1-(Ethylsulfonyl)piperidin-4-yl)-4-(2-methylthiazol-5-yl)-5-(trifluoromethyl)pyrimidin-2-amine] | 100 to 1000 nM | ≤ 100 nM | 100 to 1000 nM
11 | Cc1cc(C(C)(C)O)ccc1-c1ncc(-c2nc(NC3CCN(S(C)(=O)=O)CC3)ncc2C(F)(F)F)s1 [Example 8, 2-[3-Methyl-4-[5-[2-[(1-methylsulfonylpiperidin-4-yl)amino]-5-(trifluoromethyl)pyrimidin-4-yl]-1,3-thiazol-2-yl]phenyl]propan-2-ol] | 100 to 1000 nM | ≤ 100 nM | > 1000 nM
12 | COC(=O)Nc1ncc(-c2nc(NC3CCN(S(C)(=O)=O)CC3)ncc2C(F)(F)F)s1 [Example 54, Methyl N-[5-[2-[(1-methylsulfonylpiperidin-4-yl)amino]-5-(trifluoromethyl)pyrimidin-4-yl]-1,3-thiazol-2-yl]carbamate] | 100 to 1000 nM | ≤ 100 nM | > 1000 nM

Now from value to compound:

Row | IC50 (CDK4/Cyclin D1) | IC50 (CDK2/Cyclin E2) | IC50 (OVCAR3 p-RB) | Structure (SMILES)
13 | ≤ 100 nM | ≤ 100 nM | ≤ 100 nM | CC(C)(O)Cc1ncc(-c2nc(NC3CCN(S(=O)(=O)c4cnn(CC#N)c4)CC3)ncc2C(F)(F)F)s1 [Example 77]
14 | ≤ 100 nM | ≤ 100 nM | 100 to 1000 nM | Cc1ncc(-c2nc(NC3CCN(S(=O)(=O)CCO)CC3)ncc2C(F)(F)F)s1 [Example 61, 2-[4-[[4-(2-methyl-1,3-thiazol-5-yl)-5-(trifluoromethyl)pyrimidin-2-yl]amino]piperidin-1-yl]sulfonylethanol]
15 | ≤ 100 nM | ≤ 100 nM | ≤ 100 nM | CC(C)(O)Cc1ncc(-c2nc(N[C@H]3CCN(S(C)(=O)=O)C[C@H]3F)ncc2C(F)(F)F)s1 [Example 69, 1-(5-(2-(((3R,4S)-3-fluoro-1-(methylsulfonyl)piperidin-4-yl)amino)-5-(trifluoromethyl)pyrimidin-4-yl)thiazol-2-yl)-2-methylpropan-2-ol]
16 | ≤ 100 nM | ≤ 100 nM | 100 to 1000 nM | CC(O)c1ncc(-c2nc(NC3CCN(S(=O)(=O)c4cnn(CC(N)=O)c4)CC3)ncc2C(F)(F)F)s1 (stereo not drawn) [Example 87, 2-(4-((4-((4-(2-(1-hydroxyethyl)thiazol-5-yl)-5-(trifluoromethyl)pyrimidin-2-yl)amino)piperidin-1-yl)sulfonyl)-1H-pyrazol-1-yl)acetamide]
17 | ≤ 100 nM | ≤ 100 nM | 100 to 1000 nM | Cc1ncc(-c2nc(NC3CCN(S(=O)(=O)c4ccn(C)n4)CC3)ncc2C(F)(F)F)s1 [Example 59, N-[1-(1-Methylpyrazol-3-yl)sulfonylpiperidin-4-yl]-4-(2-methyl-1,3-thiazol-5-yl)-5-(trifluoromethyl)pyrimidin-2-amine]
18 | 100 to 1000 nM | ≤ 100 nM | ≤ 100 nM | CC(C)(O)Cc1ncc(-c2nc(NC3CCN(S(=O)(=O)c4cnc5cccnn45)CC3)ncc2C(F)(F)F)s1 [Example 76, 1-(5-(2-((1-(imidazo[1,2-b]pyridazin-3-ylsulfonyl)piperidin-4-yl)amino)-5-(trifluoromethyl)pyrimidin-4-yl)thiazol-2-yl)-2-methylpropan-2-ol]
19 | ≤ 100 nM | ≤ 100 nM | ≤ 100 nM | Cn1cc(S(=O)(=O)N2CCC(Nc3ncc(C(F)(F)F)c(-c4cnc(C(O)C5CC5)s4)n3)CC2)cn1 (stereo not drawn) [Example 84, cyclopropyl(5-(2-((1-((1-methyl-1H-pyrazol-4-yl)sulfonyl)piperidin-4-yl)amino)-5-(trifluoromethyl)pyrimidin-4-yl)thiazol-2-yl)methanol]
20 | ≤ 100 nM | ≤ 100 nM | ≤ 100 nM | Cn1cc(S(=O)(=O)N2CCC(Nc3ncc(C(F)(F)F)c(-c4cnc(C(O)C(F)(F)F)s4)n3)CC2)cn1 (stereo not drawn) [Example 89, 2,2,2-trifluoro-1-(5-(2-((1-((1-methyl-1H-pyrazol-4-yl)sulfonyl)piperidin-4-yl)amino)-5-(trifluoromethyl)pyrimidin-4-yl)thiazol-2-yl)ethan-1-ol]
21 | ≤ 100 nM | ≤ 100 nM | ≤ 100 nM | Cc1ncc(-c2nc(N[C@H]3CCN(S(=O)(=O)c4cnn(C)c4)C[C@H]3F)ncc2C(F)(F)F)s1 [Example 94, N-((3R,4S)-3-fluoro-1-((1-methyl-1H-pyrazol-4-yl)sulfonyl)piperidin-4-yl)-4-(2-methylthiazol-5-yl)-5-(trifluoromethyl)pyrimidin-2-amine]
22 | ≤ 100 nM | ≤ 100 nM | 100 to 1000 nM | CC(C)(O)Cc1ncc(-c2nc(NC3CCN(S(=O)(=O)CCCN4CCC(C#N)CC4)CC3)ncc2C(F)(F)F)s1 [Example 78, 1-(3-((4-((4-(2-(2-hydroxy-2-methylpropyl)thiazol-5-yl)-5-(trifluoromethyl)pyrimidin-2-yl)amino)piperidin-1-yl)sulfonyl)propyl)piperidine-4-carbonitrile]
23 | ≤ 100 nM | ≤ 100 nM | ≤ 100 nM | Cn1cnc(S(=O)(=O)N2CCC(Nc3ncc(C(F)(F)F)c(-c4cnc(C(O)C(F)F)s4)n3)CC2)c1 (stereo not drawn) [Example 91, 2,2-difluoro-1-(5-(2-((1-((1-methyl-1H-imidazol-4-yl)sulfonyl)piperidin-4-yl)amino)-5-(trifluoromethyl)pyrimidin-4-yl)thiazol-2-yl)ethan-1-ol]
24 | ≤ 100 nM | ≤ 100 nM | ≤ 100 nM | Cn1cc(S(=O)(=O)N2CCC(Nc3ncc(C(F)(F)F)c(-c4cnc(C(O)C(F)F)s4)n3)CC2)cn1 (stereo not drawn) [Example 92, 2,2-difluoro-1-(5-(2-((1-((1-methyl-1H-pyrazol-4-yl)sulfonyl)piperidin-4-yl)amino)-5-(trifluoromethyl)pyrimidin-4-yl)thiazol-2-yl)ethan-1-ol]
